The text below walks through data of ChEMBL document CHEMBL2321853, “Novel acylethanolamide derivatives that modulate body weight through enhancement of hypothalamic pro-opiomelanocortin (POMC) and/or decreased neuropeptide Y (NPY)” (J Med Chem, 2013).

One may read the EC50 as the concentration at which the effect is half-maximal.

The subject of assay [1] is Mus musculus. The assay can be described thus: Antiobesity activity in Sabra mouse assessed as reduction in body weight at 1 mg/kg, ip administered on day 0, 10, 11, 12, 24, 29 measured on day 19 relative to control. Further details: scale not given: the % may be the effect or the level left. The conditions noted are these: route intraperitoneal. The format is functional.

Assay [2] deals with Mus musculus. Briefly: Antiobesity activity in Sabra mouse assessed as reduction in body weight at 1 mg/kg, ip administered on day 0, 10, 11, 12, 24, 29 measured on day 24 relative to control. The format is functional. Further details: scale not given: the % may be the effect or the level left. Conditions: route intraperitoneal.
The test system of assay [3] is Mus musculus. The assay can be described thus: Antiobesity activity in Sabra mouse assessed as reduction in body weight at 1 mg/kg, ip administered on day 0, 10, 11, 12, 24, 29 measured on day 12 relative to control. The format is functional. Further details: scale not given: the % may be the effect or the level left. Conditions: route intraperitoneal.
The test system of assay [4] is Mus musculus. Briefly: Antiobesity activity in Sabra mouse assessed as reduction in body weight at 1 mg/kg, ip administered on day 0, 10, 11, 12, 24, 29 measured on day 39 relative to control. It is filed as functional. Further details: scale not given: the % may be the effect or the level left. Conditions: route intraperitoneal.
Assay [5] deals with Mus musculus. The assay can be described thus: Antiobesity activity in Sabra mouse assessed as reduction in body weight at 1 mg/kg, ip administered on day 0, 10, 11, 12, 24, 29 measured on day 29 relative to control. It is filed as functional. Further details: scale not given: the % may be the effect or the level left. The conditions noted are these: route intraperitoneal.
Assay [6] relates to Mus musculus. The assay can be described thus: Antiobesity activity in Sabra mouse assessed as reduction in body weight at 1 mg/kg, ip administered on day 0, 10, 11, 12, 24, 29 measured on day 26 relative to control. It is filed as functional. Further details: scale not given: the % may be the effect or the level left. The conditions noted are these: route intraperitoneal.
For assay [7], the system named is Mus musculus. The assay can be described thus: Antiobesity activity in Sabra mouse assessed as reduction in body weight at 1 mg/kg, ip administered on day 0, 10, 11, 12, 24, 29 measured on day 36 relative to control. Further details: scale not given: the % may be the effect or the level left. The conditions noted are these: route intraperitoneal. The format is functional.

Assay [8] has as its system Mus musculus. Briefly: Antiobesity activity in Sabra mouse assessed as reduction in body weight at 1 mg/kg, ip administered on day 0, 10, 11, 12, 24, 29 measured on day 33 relative to control. The format is functional. Further details: scale not given: the % may be the effect or the level left. Conditions: route intraperitoneal.
The subject of assay [9] is Mus musculus. Briefly: Antiobesity activity in Sabra mouse assessed as reduction in body weight at 1 mg/kg, ip administered on day 0, 10, 11, 12, 24, 29 measured on day 22 relative to control. The conditions noted are these: route intraperitoneal. Further details: scale not given: the % may be the effect or the level left. It is filed as functional.
The target in assay [10] is Transient receptor potential cation channel subfamily V member 1 (Homo sapiens, UniProt Q8NER1). The assay can be described thus: Agonist activity at TRPV1 receptor (unknown origin).
Sequence of Transient receptor potential cation channel subfamily V member 1 (Q8NER1 whole entry): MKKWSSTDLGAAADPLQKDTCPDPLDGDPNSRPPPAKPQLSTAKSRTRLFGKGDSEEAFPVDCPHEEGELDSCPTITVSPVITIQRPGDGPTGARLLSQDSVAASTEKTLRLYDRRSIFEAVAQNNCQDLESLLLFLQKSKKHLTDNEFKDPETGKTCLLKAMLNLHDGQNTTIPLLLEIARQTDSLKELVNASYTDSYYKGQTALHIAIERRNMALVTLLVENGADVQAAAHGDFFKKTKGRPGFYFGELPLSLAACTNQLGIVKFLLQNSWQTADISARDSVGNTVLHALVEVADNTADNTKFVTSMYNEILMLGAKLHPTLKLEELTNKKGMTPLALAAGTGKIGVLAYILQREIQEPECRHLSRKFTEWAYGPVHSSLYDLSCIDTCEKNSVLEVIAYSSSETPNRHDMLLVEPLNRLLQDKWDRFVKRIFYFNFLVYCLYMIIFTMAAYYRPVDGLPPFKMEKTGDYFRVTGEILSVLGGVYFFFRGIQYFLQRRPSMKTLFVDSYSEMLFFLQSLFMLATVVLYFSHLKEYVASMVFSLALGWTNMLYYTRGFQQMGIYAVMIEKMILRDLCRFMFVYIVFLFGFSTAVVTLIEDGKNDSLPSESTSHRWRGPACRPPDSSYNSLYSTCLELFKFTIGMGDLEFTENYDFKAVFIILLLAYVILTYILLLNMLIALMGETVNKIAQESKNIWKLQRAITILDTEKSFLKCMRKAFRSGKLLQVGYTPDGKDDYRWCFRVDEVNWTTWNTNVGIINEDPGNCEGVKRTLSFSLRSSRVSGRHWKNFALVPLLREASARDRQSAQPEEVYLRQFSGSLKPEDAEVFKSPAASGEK

For the compound `CCCCCCCC/C=C\CCCCCCCC(=O)N(C)CCO`, the Activity in the assay with Mus musculus [1] is -0.48%; in the assay on Mus musculus [2] it was 0.03%; with Mus musculus [3] it was -0.61%; with Mus musculus [4], -3.67%; in the assay on Mus musculus [5], -1.44%; in the assay on Mus musculus [6] it was -0.5%. The Activity with Mus musculus [7] is given as -3.28%; in the assay on Mus musculus [8], -0.3%; with Mus musculus [9] it was -0.48%.
For the compound `CCCCC/C=C\C/C=C\CCCCCCCC(=O)NCCO` [LINOLEOYLETHANOLAMIDE], the EC50 in assay [10] was determined as 630 nM.
In assay [10], `CCCCC/C=C\C/C=C\C/C=C\C/C=C\CCCC(=O)NCCO` [ANANDAMIDE] had an EC50 of 15.8 nM.
